# Source: US6906175B2, “Production of adenine nucleotide translocator (ANT), novel ANT ligands and screening assays therefor” (priority 1998, dated 2005)
# Columns and labels:
# [1] = molecular target: T1, T. ni/huANT3 mitochondria (Homo sapiens, UniProt P12236); assay: 125I-compound 24 competition binding (Tube Assay), mitochondria from T. ni cells expressing huANT3; settings: mitochondria from T. ni cells expressing huANT3; FIGS. 12, 14, 15
# T1 construct: expressed in transfected cells; host or cells: Trichoplusia ni cells infected with recombinant baculovirus (cells prepared by PharMingen); isolated mitochondria
# T1 sequence (P12236 1-298): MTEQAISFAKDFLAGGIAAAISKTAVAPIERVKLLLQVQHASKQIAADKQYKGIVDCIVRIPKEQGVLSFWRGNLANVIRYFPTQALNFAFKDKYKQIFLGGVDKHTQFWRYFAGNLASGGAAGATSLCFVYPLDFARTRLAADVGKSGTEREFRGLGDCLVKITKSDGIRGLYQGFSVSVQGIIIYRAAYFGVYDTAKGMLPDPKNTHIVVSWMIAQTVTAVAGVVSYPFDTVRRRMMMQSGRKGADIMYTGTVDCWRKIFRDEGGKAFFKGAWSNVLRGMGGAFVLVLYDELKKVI
# Experimental: Atractyloside analogs (Example 6; Table 1; see also Examples 7-9) were also used in pseudo-homologous competition binding assays using T. ni/huANT3 mitochondria or bovine mitochondria. Mitochondria from noninfected T. ni cells, or T. ni cells infected with a baculovirus expressing huANT3 (see Example 3) were prepared as follows: […] cells were prepared by a subcontractor (PharMingen, San Diego, Calif.) as portions of about 250 mg of cells per tube. Each portion was suspended in 1 ml of MSB with protease inhibitors (leupeptin, final concentration 10 ug/ml; pepstatin, final concentration 10 ug/ml; aprotinin, final concentration, 2 ug/ml; phenylmethylsulfonyl fluoride, [PMSF], final concentration, 100 μM; all from Sigma Chemical Co., St. Louis, Mo.). The resuspended cell suspensions were frozen and thawed twice, then homogenized using a rotating teflon-coated probe and a close-fitting glass container (10 passes). The cellular homogenate was centrifuged (3,700 rpm, approximately 1,500×g) at 4° C. for 5 minutes; this supernatant from the first spin was saved. The pellet was washed with about 500 μl of MSB with protease inhibitors, centrifuged (3,800 rpm, approximately 1,600×g) at 4° C. for 5 minutes, and supernatant from this spin was combined with the supernatant from the first spin. […]
# The mitochondrial preparations were divided into aliquots (typically, 50μl for T. ni mitochondria or 20 μl for bovine mitochondria) and then either used directly in assays or flash frozen and stored at −80° C. The total protein content in the mitochondrial preparations was determined using the enhanced protocol (30 minutes at 60° C.; see http://www.ruf.rice.edu/˜bioslabs/methods/protein/BCA.html) of the bicinchoninic acid (BCA) assay (available in kit form from Pierce, Rockford, Ill.). […]
# Unbound ^125I-compound 24 was removed by aspiration. […] The resultant pellets were aspirated and the radioactivity (dpm) in each was determined by gamma counting.
# [2] = molecular target: T2, bovine mitochondria (ANT) (Bos taurus, UniProt P02722); assay: 125I-compound 24 competition binding (Tube Assay), beef heart mitochondria; settings: FIGS. 11, 13, 16
# T2 construct: from tissue; host or cells: bovine heart mitochondria
# T2 sequence (P02722 2-298 limits assumed): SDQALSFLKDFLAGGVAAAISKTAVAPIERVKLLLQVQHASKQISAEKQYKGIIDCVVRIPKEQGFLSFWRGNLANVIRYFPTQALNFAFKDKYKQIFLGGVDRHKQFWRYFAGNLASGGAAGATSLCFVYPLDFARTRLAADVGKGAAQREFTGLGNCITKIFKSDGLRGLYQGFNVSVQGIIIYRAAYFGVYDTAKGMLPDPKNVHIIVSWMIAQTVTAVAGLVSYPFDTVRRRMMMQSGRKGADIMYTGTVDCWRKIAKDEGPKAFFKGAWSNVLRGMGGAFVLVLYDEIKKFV
# Experimental: Bovine mitochondria were prepared as follows: Essentially all of the fat and cholesterol […] was removed from two bovine hearts which were then cut into 1-inch cubes. The cubes were ground in a meat grinder using the fine setting. Three hundred (300) […] portions of the ground heart were weighed out and, to each was added 400 ml of Isolation Buffer (IB; 250 mM sucrose, 1 mM sodium succinate, 0.2 mM K^+EDTA, 10 mM Tris-base, pH 7.8). (All buffers were filter sterilized, and column buffers were degassed, and, unless otherwise noted, all steps were carried out at 0 to 4° C. on ice or in pre-cooled rotors and centrifuges.) The preparations were mixed in a blender two times for 15 seconds on high setting and, in between and after blends, the pH was adjusted to 7.8 with 2M Tris-base. The homogenate was centrifuged for 20 minutes at 1,200×g, and the supernatant was poured through two layers of cheese cloth and adjusted to pH 7.8 with 2M Tris-base. The supernatant was then centrifuged for 30 minutes at […]. The supernatant was decanted, and the buff-colored outer pellet was dislodged with about 10 ml of IB and discarded. The brown inner pellet (heavy mitochondria) was resuspended in IB (about 10 ml per pellet). The pellets were homogenized in a glass-teflon homogenizer (2 passes at high drill speed). Samples were combined and centrifuged for 30 minutes at 11,000×g. The supernatant was decanted, and the pellets were resuspended in 60 ml of IB per 900 gm of ground heart. This centrifugation step was repeated and the pellets were finally resuspended in IB (60 ml per 900 gm of ground heart). One kilogram of beef heart typically yields about one (1) gram of mitochondria
# The mitochondrial preparations were divided into aliquots (typically, 50μl for T. ni mitochondria or 20 μl for bovine mitochondria) and then either used directly in assays or flash frozen and stored at −80° C. The total protein content in the mitochondrial preparations was determined using the enhanced protocol (30 minutes at 60° C.; see http://www.ruf.rice.edu/˜bioslabs/methods/protein/BCA.html) of the bicinchoninic acid (BCA) assay (available in kit form from Pierce, Rockford, Ill.).
# In the “Tube Assay,” mitochondria (from about 1 to 10 μg of total protein) were resuspended in 100 μl of Tris-KCl buffer with 0.1% BSA, pH 7.4. ^125I-labeled compound 24 (Example 11) was added to a final concentration of 0.5 nM. When used, competitors were added at these concentration ranges: unlabeled atractyloside or compound 24 final concentration from 5 nM to 10 μM; unlabeled ADP (a lower affinity competitor) was added at a final concentration of 500 nM to 1 mM.
# The reaction mixes were incubated on ice for 60 minutes and then pelleted by centrifugation (approximately 16,000×g) for 11 minutes at 4° C.
# Unbound ^125I-compound 24 was removed by aspiration. The pellets were contact-washed with Tris-KCl buffer, pH 7.4, and recentrifuged. The resultant pellets were aspirated and the radioactivity (dpm) in each was determined by gamma counting.
# GST-huANT3 = molecular target: T3, GST-huANT3 (Homo sapiens, UniProt P12236); assay: ATP binding to agarose-glutathione beads incubated with solubilized bacterial lysate
# T3 construct: Gly-Ser-Pro-Gly-Ile-Leu-Met, where “Met” indicates the amino acid encoded by the translation initiation codon of huANT3; made in house; host or cells: E. coli (solubilized lysate, captured on agarose-glutathione beads)
# T3 sequence (P12236 1-298): T1 sequence (P12236 1-298)
# Experimental: Agarose-glutathione beads were incubated with solubilized (using Dnase, Rnase and 0.1% Triton X-100, see Example 1, section D) bacterial lysate (see Example 2), and substituted for the E. coli membranes in binding assays. Best results (i.e., more specific binding) were seen when the beads were preincubated with bovine serum albumin (BSA, 0.1%) Specific ATP binding (1,070 cpm) was also observed in this experiment (compare to nonspecific binding of 279 cpm in the presence of 10 mM non-radiolabeled ATP).
# Sf9/huANT3 mitochondria = molecular target: T4, Sf9/huANT3 mitochondria (Homo sapiens, UniProt P12236); assay: Homologous competition of [32P]ATP binding to Sf9/huANT3 mitochondria; settings: 25 μg mitochondrial protein per assay; FIG. 7
# T4 construct: expressed in transfected cells; host or cells: Spodoptera frugiperda Sf9 cells infected with recombinant baculovirus; isolated mitochondria
# T4 sequence (P12236 1-298): T1 sequence (P12236 1-298)
# Experimental: To estimate maximal binding and the extent of overexpression of the huANT3, 25 μg of membrane protein was incubated with varying amounts of [^32P]ATP (1-500 μM) in binding buffer (120 mM KCl, 10 mM Tris, 1 mM EDTA, pH 7.4) for 2 hr at room temperature. The membranes with bound ATP were sedimented by centrifugation at 5000 g for 5 min, and washed once with binding buffer. Membrane pellets were then mixed with 5 ml scintillation cocktail and counted.
# Sf9 cells expressing huANT3 were grown in spinner flasks. The cells were harvested by centrifugation at 2,000 g for 5 min. The cell pellet was resuspended in MSB and subjected to 3 freeze-thaw cycles. Cell membranes and debris were removed by centrifugation at 600 g for 5 min; mitochondria were collected by centrifuging the supernatant at 20,000 g for 15 min. The mitochondrial pellets were suspended in MSB, and used for binding assays as described above. Homologous competition of [^32P]ATP binding was performed using 25 μg mitochondrial protein per assay.
# His-tagged huANT3 = molecular target: T5, His-tagged huANT3 (Homo sapiens, UniProt P12236); assay: Binding of [32P]ATP to purified His-tagged huANT3 on Ni-agarose magnetic beads; parameters: made in house; host or cells: baculovirus-infected Sf9 cells; settings: for cpm bound by: huANT3-Producing Cells: 2 hr
# T5 sequence (P12236 1-298): T1 sequence (P12236 1-298)
# Experimental: (§1) His-tagged huANT3 protein was purified from baculovirus-infected Sf9 solubilized cell lysates using Ni-agarose magnetic beads; Sf9 cells that had not been infected were used as negative controls. The beads were incubated with [^32P]ATP (1 or 100 μM) for 2 hr. The beads were washed and then counted to determine the amount of bound ATP. […] Binding saturation had essentially been achieved with 1 μM ATP.
# [3] = Binding of [32P]ATP to Ni-agarose bead material from control (uninfected) Sf9 cells; settings: 2 hr
# Experimental: as §1
# [4] = system: sham transformed E. coli membranes; assay: Saturation binding of [32P]ATP to E. coli membranes, sham transformed (vector only) cells; settings: 25 μg membrane protein, 2 hr room temperature
# Experimental: (§2) Following arabinose induction, transformed or sham transformed (vector only) E coli were collected by centrifugation at 2000 g for 10 min. The bacterial pellets were resuspended in MSB, to which lysozyme (100 μg/ml) was added. After 20 min at room temperature, the lysates were subjected to one freeze-thaw cycle followed by sonication as described above. The resultant membrane preparation was used for binding assays.
# (§3) […] The membranes with bound ATP were sedimented by centrifugation at 5000 g for 5 min, and washed once with binding buffer. Membrane pellets were then mixed with 5 ml scintillation cocktail and counted.
# [5] = molecular target: T6, GST-huANT3 recombinantly produced in E. coli (membranes) (Homo sapiens, UniProt P12236); assay: Saturation binding of [32P]ATP to E. coli membranes, huANT3-producing cells; settings: for cpm bound by: huANT3-Producing Cells: 25 μg membrane protein, 2 hr room temperature
# T6 construct: Gly-Ser-Pro-Gly-Ile-Leu-Met, where “Met” indicates the amino acid encoded by the translation initiation codon of huANT3; made in house; host or cells: E. coli (crude membrane preparation)
# T6 sequence (P12236 1-298): T1 sequence (P12236 1-298)
# Experimental: as §2, §3
structure (smiles),measurement,setting,value
"Nc1ncnc2c1ncn2[C@@H]1O[C@H](COP(=O)(O)OP(=O)(O)O)[C@@H](O)[C@H]1O [ADP, adenosine diphosphate]",competitive inhibition of 125I-compound 24 binding (in words),[1],low affinity
same,competitive inhibition of 125I-compound 24 binding (in words),[2],low affinity
"Nc1ncnc2c1ncn2[C@@H]1O[C@H](COP(=O)(O)OP(=O)(O)OP(=O)(O)O)[C@@H](O)[C@H]1O [ATP, adenosine triphosphate]",Specific ATP binding,GST-huANT3; beads preincubated with BSA 0.1%,"1,070 cpm"
same,nonspecific binding,GST-huANT3; in the presence of 10 mM non-radiolabeled ATP,279 cpm
same,Kd,Sf9/huANT3 mitochondria,13 µM
same,ATP concentration at which binding saturation had essentially been achieved,His-tagged huANT3,1 µM
same,cpm bound by: huANT3-Producing Cells,His-tagged huANT3; [ATP] 1.0 uM,149 cpm
same,cpm bound by: huANT3-Producing Cells,His-tagged huANT3; [ATP] 100 uM,160 cpm
same,cpm bound by: Control (Uninfected) Cells,[3]; [ATP] 1.0 uM,43 cpm
same,cpm bound by: Control (Uninfected) Cells,[3]; [ATP] 100 uM,30 cpm
same,cpm bound by: Sham Transformed Cells,[4]; [ATP] 0.1 uM,109 cpm
same,cpm bound by: Sham Transformed Cells,[4]; [ATP] 0.5 uM,95 cpm
same,cpm bound by: Sham Transformed Cells,[4]; [ATP] 1.0 uM,147 cpm
same,cpm bound by: Sham Transformed Cells,[4]; [ATP] 5.0 uM,123 cpm
same,cpm bound by: Sham Transformed Cells,[4]; [ATP] 10 uM,214 cpm
same,cpm bound by: Sham Transformed Cells,[4]; [ATP] 50 uM,549 cpm
same,cpm bound by: Sham Transformed Cells,[4]; [ATP] 100 uM,718 cpm
same,cpm bound by: Sham Transformed Cells,[4]; [ATP] 500 uM,"2,140 cpm"
same,cpm bound by: huANT3-Producing Cells,[5]; [ATP] 0.1 uM,191 cpm
same,cpm bound by: huANT3-Producing Cells,[5]; [ATP] 0.5 uM,49 cpm
same,cpm bound by: huANT3-Producing Cells,[5]; [ATP] 1.0 uM,325 cpm
same,cpm bound by: huANT3-Producing Cells,[5]; [ATP] 10 uM,263 cpm
same,cpm bound by: huANT3-Producing Cells,[5]; [ATP] 50 uM,"2,727 cpm"
same,cpm bound by: huANT3-Producing Cells,[5]; [ATP] 100 uM,"5,772 cpm"
same,cpm bound by: huANT3-Producing Cells,[5]; [ATP] 500 uM,"9,715 cpm"
same,Kd,"[5]; from saturation binding data of Table 2, read-out: affinity of the ATP binding",~6 µM
